The source of these data is patent EP0637448A1, “Combinations of glycinamide or N-acetylglycinamide with analgesic compounds” (ISCOFAR SAS DI PAOLO E. GHIRARDI, priority 1993, dated 1995).

In series [1] the test system is phenylquinone induced writhing. As to the kind of experiment: writhing test (phenylquinone-induced abdominal contractions). Type of series: in vivo, mouse. To be noted: for time of maximum effect after administration: ED50 dose given orally, effect as a function of time; for ED50: Mus musculus, read-out: ED₅₀ ± D.5 (anti-writhing action). As to the method: In order to experimentally test the above analgesic effect, which involves the µ and K type opiate receptors, the writhing test (literally: "induced abdominal contracture test") with […] of phenylquinone or paraphenylbenzoquinone (0.02% in 5% ethanol), has been choosed. Since phenylquinone is a photosensitive, said solution was kept dark bottle at 37 °C with continuous stirring. Groups of animals were treated orally with different doses of glycinamide at various time intervals before phenylquinone being administered by intraperitoneal way. For each experimental point 3 groups of 10 animals each were tested. After the phenylquinone administration, the animals were placed in glass cylinders and the abdominal contractions were recorded for 20 minutes starting form the fifth minute following the intraperitoneal administration of phenylquinone. As an average, about 50±15 abdominal contractions were recorded during the surveying time. The choice of phenylquinone as the writhing inductor is justified by the greater qualitative constance and higher number of contractions obtainable when compared with other inductors such as acetylcholine, acetic acid, ethacrynic acid, air, etc. [table]

Series [2] concerns EDEMA FROM CARRAGEENIN
Briefly: carrageenin edema test. Type of series: in vivo, mouse. Particulars: for ED50: NSAID alone, per os 60 minutes before carrageenin, edema volume after 3 hours, read-out: ED₅₀ ± S.D. (dose reducing edema by 50%).

Series [3] in a line: acute oral toxicity (LD50). Type of series: in vivo. To be noted: in vivo, po; mouse, orally; read-out: LD₅₀.
Series [4] relates to mouse. Briefly: acute oral toxicity (LD50). Type of series: in vivo. To be noted: orally.
The mark [5] stands for this setting: substance alone, orally, mouse, phenylquinone 2 mg/kg i.p.

Like-named read-outs stand apart in the source and are kept apart here.

As to `NCC(=O)O` [glycine], the “enhancement of the action of peripheral analgesic drugs” value in series [1] (test not given) is on record as “does not produce”.
Turning to `CC(C)Cc1ccc(C(C)C(=O)O)cc1` (stereo not drawn) [Ibuprofen], the ED50 in series [2] (mouse) is 20 ± 2.4 mg/kg.
With `COc1ccc2c(c1)c(CC(=O)O)c(C)n2C(=O)c1ccc(Cl)cc1` [Indomethacin], the ED50 in series [2] (mouse) is 84 ± 12 mg/kg.
Same read-out and setting: under `CC(=O)Oc1ccccc1C(=O)O` [Acetylsalicylic acid] stands 5.1 ± 0.8 mg/kg.
With `CC(=O)NCC(N)=O` [N-acetylglycinamide], the LD50 in series [3] was greater than 2000 mg/kg. Moreover, in series [1] (mouse, in vivo), the “peripheral analgesic activity compared with glycinamide” value is “shared both qualitatively and quantitatively”.
As for `O=C(O)Cc1ccccc1Nc1c(Cl)cccc1Cl` [Sodium diclofenac], the ED50 is 10 ± 3.6 mg/kg in series [2] (mouse); 1.86 ± 1.15 mg/kg in series [1] (+ Glycinamide HCl 15 mg/kg orally 13 minutes before testing, mouse); 1.12 ± 1.2 mg/kg in series [1] (+ Glycinamide HCl 25 mg/kg orally 13 minutes before testing, mouse); 1.05 ± 1.31 mg/kg in series [1] (+ Glycinamide HCl 50 mg/kg orally 13 minutes before testing, mouse); 1.02 ± 1.26 mg/kg in series [1] (+ Glycinamide HCl 75 mg/kg orally 13 minutes before testing, mouse); 1.28 ± 1.16 mg/kg in series [1] (+ Glycinamide HCl 100 mg/kg orally 13 minutes before testing, mouse). Besides, the ED50 in series [1] (setting [5]) was 2.93 ± 1.43 mg/kg. Also, the “time of maximum effect after administration” value in series [1] (mouse) stood at 45 min.
Regarding `NCC(N)=O` [Glycinamide], the “enhancement of the effect of sodium diclofenac” value in series [2] (50 mg/kg of glycinamide, based on the carrageenin edema test) was “at least 2.8 times”. Moreover, the anti-edema effect result in series [2] (glycinamide alone, 50 mg/kg orally 50 minutes before carrageenin, mouse) is given as “does not develop an anti-edema effect”. For the same compound, the LD₅₀ result in series [4] is reported as “higher than 2 g/Kg”. For the same compound, the “enhancement of the antiphlogistic and visceral peripheral analgesic effect of sodium diclofenac” value in series [1] (25 mg/kg of glycinamide, based on writhing test) is given as “at least 2.5 times”. The “time of maximum effect after administration” value in series [1] (mouse) is given as “about 13 minutes”. The ED50 in series [1] (setting [5]) is roughly 82.9 mg/kg. Besides, in series [1] (orally administered dose of 200 mg/kg, mouse), the “reduction (anti-writhing action, peak)” value came to 81.3%.
